Measurements from PMC4159591, “Crystal structure of an HD‐GYP domain cyclic‐di‐GMP phosphodiesterase reveals an enzyme with a novel trinuclear catalytic iron centre” (Molecular Microbiology, 2013).
Values belong to the compound of their own block, whether it stands above or below them.

Experiments:
PmGH [1] = molecular target: T1, PmGH (Persephonella marina, UniProt C0QQ26, C41A/C197A); assay: X-ray crystal structure (crystal soak), […] A; format: binding; conditions: crystals soaked with 30 mM GMP; tri-iron centre intact; active site, phosphate bridges M and H iron sites; monomer B only
T1 construct: gene PERMA_0986; GAF + HD-GYP domains; synthetic gene in pET47b, E. coli BL21(DE3); N-terminal His6 tag cut with HRV 3C; homodimer; tri-iron centre
T1 sequence (C0QQ26 entry or part of it C41A/C197A): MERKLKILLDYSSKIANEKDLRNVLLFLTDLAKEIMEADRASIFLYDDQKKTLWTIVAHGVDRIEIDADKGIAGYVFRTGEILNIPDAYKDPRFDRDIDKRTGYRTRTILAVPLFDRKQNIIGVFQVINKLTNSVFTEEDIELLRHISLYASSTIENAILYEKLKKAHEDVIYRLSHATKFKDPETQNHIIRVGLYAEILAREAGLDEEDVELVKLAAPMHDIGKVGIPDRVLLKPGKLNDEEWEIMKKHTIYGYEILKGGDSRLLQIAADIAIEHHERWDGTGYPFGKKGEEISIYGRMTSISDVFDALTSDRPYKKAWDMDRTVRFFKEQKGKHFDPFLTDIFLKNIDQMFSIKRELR

PmGH [2] = molecular target: T2, PmGH (Persephonella marina, UniProt C0QQ26, C41A/C197A/D305A); assay: HPLC phosphodiesterase assay; format: biochemical; conditions: 100 uM c-di-GMP, pH 7.6, 10 mM MgCl2, 10 mM MnCl2, 0.5 mM EDTA, 37 C
T2 construct: gene PERMA_0986; GAF + HD-GYP domains; synthetic gene in pET47b, E. coli BL21(DE3); N-terminal His6 tag cut with HRV 3C; homodimer; tri-iron centre
T2 sequence (C0QQ26 entry or part of it C41A/C197A/D305A): as the sequence (C0QQ26 entry or part of it C41A/C197A) above, with D305A counted along it

PmGH [3] = molecular target: T1, PmGH; assay: X-ray crystal structure (crystal soak), […] A; hydrolysis in solution shown by HPLC; format: binding; conditions: crystals soaked with 25 mM c-di-GMP and 100 mM EDTA; only G-site Fe bound; bound to monomer B only, HD-GYP active site
PmGH [4] = molecular target: T3, PmGH (Persephonella marina, UniProt C0QQ26, C41A/E185A/C197A); assay: HPLC phosphodiesterase assay; format: biochemical; conditions: 100 uM c-di-GMP, pH 7.6, 10 mM MgCl2, 10 mM MnCl2, 0.5 mM EDTA, 37 C
T3 construct: gene PERMA_0986; GAF + HD-GYP domains; synthetic gene in pET47b, E. coli BL21(DE3); N-terminal His6 tag cut with HRV 3C; homodimer; tri-iron centre
T3 sequence (C0QQ26 entry or part of it C41A/E185A/C197A): as the sequence (C0QQ26 entry or part of it C41A/C197A) above, with E185A counted along it

[5] = molecular target: GAF/HD-GYP protein from Persephonella marina EX-H1 (PmGH) (Persephonella marina EX-H1) (UniProt C0QQ26); assay: crystal structure; hanging drop vapour diffusion, 0.1 M MES pH 6.5, 0.9 M succinic acid, 2% PEG 2000; space group I222 with one dimer in the asymmetric unit; native structure at 2.03 Å

Compound: Nc1nc2c(ncn2[C@@H]2O[C@H](COP(=O)(O)O)[C@@H](O)[C@H]2O)c(=O)[nH]1 [GMP]
X-ray crystal structure (crystal soak), 2.55 A (PmGH [1]): Crystal soaks with GMP and c‐di‐GMP gave identical structures of PmGH in complex with GMP

Compound: Nc1nc2c(ncn2[C@@H]2O[C@@H]3COP(=O)(O)O[C@H]4[C@@H](O)[C@H](n5cnc6c(=O)[nH]c(N)nc65)O[C@@H]4COP(=O)(O)O[C@H]3[C@H]2O)c(=O)[nH]1 [c-di-GMP]
c-di-GMP hydrolysis (PmGH [2]): marked reduction in their ability to hydrolyse c‐di‐GMP, hydrolysis of c‐di‐GMP is still detected
X-ray crystal structure (crystal soak), 2.68 A; hydrolysis in solution shown by (PmGH [3]): revealed well defined difference electron density for a bound c‐di‐GMP molecule at the active site
c-di-GMP hydrolysis (PmGH [4]): marked reduction in their ability to hydrolyse c‐di‐GMP, hydrolysis of c‐di‐GMP is still detected

stoichiometry N [5]: 2
Compound: GAF/HD-GYP protein from Persephonella marina EX-H1 (PmGH) (from UniProt C0QQ26 2-363) (enzyme)
